The target of test [1] is AAK1 (Homo sapiens (Human), UniProt Q2M2I8). Put plainly: pAP2M1 cell-based assay (In-Cell Western). To be noted: Hela cells co-transfected with AP2M1 and AAK1, 3 hr treatment, Phospho-AP2M1 (Thr156). The text has this: pAP2M1 Cell-Based Assay (In-Cell Western):
The plate was read on Licor Odyssey CLx imaging system (LICOR) to acquire fluorescence intensity at 700 channel and 800 channel.
Data analysis: Fluorescence intensity at 700 channel served as internal standard and 800 channel were normalized with 700 channel.

Test [2] has as its target GAK (amino acids Q25-N335) (Homo sapiens (Human), UniProt O14976). Put plainly: GAK pSENs assay. The class given is biochemical.
Test [3] deals with AAK1 (amino acids T27-A365) (Homo sapiens (Human), UniProt Q2M2I8). Put plainly: AAK1 pSENs assay. The class given is biochemical. To be noted: for AAK1:GAK pSENs Selectivity: ratio of AAK1 pSENs activity to GAK pSENs activity; for IC50: read-out: AAK1 pSENs:EIC50. Put shortly: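 Untagged, biotinylated E. coli-expressed AAK1 at 20 nM preincubated with compound 15 min at 25° C in HEPES pH 7.5 buffer with 10 mM MgCl2 and 1 mM DTT. Reaction started with AQT0759 and ATP, added as 30 uM and 70 uM solutions in equal volume.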

Test [4] addresses BIKE (amino acids S38-E345) (K320A, K321A) (Homo sapiens (Human), UniProt Q9NSY1, K320A/K321A). Put plainly: BIKE pSENs assay. It counts as biochemical. How it is done: The recombinant proteins were independently expressed in Esherichia coli BL21(DE3) cells cultured in Luria-Bertani (LB) medium until OD600 reached 0.6-0.8, then cooled to 15° C., and supplemented with 0.5 mM isopropyl 1-thio-D-galactopyranoside (IPTG) induce protein expression 16 h. Cells were harvested and resuspended in lysis buffer (50 mM HEPES pH 7.5, 500 mM NaCl, 5 mM imidazole, 5% glycerol, 0.5 mM Tris (2-carboxyethyl) phosphine (TCEP), cOmplete Protease Inhibitor Tablet (Roche)) and lysed by microfluidics high pressure homogenizer (UH-06, Union-Biotech). Proteins were purified using Ni-Affinity chromatography (His FF column, Bestchrom) and eluted stepwise in binding buffer with 20-300 mM imidazole. Removal of the hexahistidine tag was performed at 4° C. overnight using recombinant TEV protease and reacted with BirA to obtain the corresponding biotinylated-AAK1. BIKE or GAK proteins. Further separated in the reverse Strep column (Strep-Tactin® XT, IBA). The Biotin elution sample was collected containing untagged biotinylated protein was then purified by Ion-exchange chromatography (Mono Q 10/100 GL, Cytiva) and Size-exclusion chromatography (HiLoad 16/600 Superdex 200 pg, Cytiva). The pure protein was stored in a storage buffer 50 mM HEPES (pH 7.5), 300 mM NaCl, 5% glycerol at −80° C. Protein were characterized by SDS-PAGE. LC-MS and aSEC.
BIKE protein was dissolved at 20 nM in 1× enzyme solution (50 mM HEPES pH7.5, 10 mM MgCl2, 1 mM DTT, 1% glycerol, 0.5 mM EGTA, 0.01% Briji35, 0.02% BSA) and 12.5 ul was incubated with 250 nl DMSO or 250 nl compound in DMSO at 25° C. for 15 min. The reaction was started by addition of 12.5 ul of 30 uM AQT0759 (Assayquant, CSKS-AQT0759B) and 40 uM ATP which were diluted in 1× substrate dilution buffer (50 mM HEPES pH7.5, 10 mM MgCl2. 1 mM DTT, 1% glycerol, 0.5 mM EGTA, 0.01% Briji35).

Molecules are shown by their SMILES. A value given as a limit tells only on which side of the number the result lay.

Sequence of AAK1 (amino acids T27-A365) (Q2M2I8 27-365): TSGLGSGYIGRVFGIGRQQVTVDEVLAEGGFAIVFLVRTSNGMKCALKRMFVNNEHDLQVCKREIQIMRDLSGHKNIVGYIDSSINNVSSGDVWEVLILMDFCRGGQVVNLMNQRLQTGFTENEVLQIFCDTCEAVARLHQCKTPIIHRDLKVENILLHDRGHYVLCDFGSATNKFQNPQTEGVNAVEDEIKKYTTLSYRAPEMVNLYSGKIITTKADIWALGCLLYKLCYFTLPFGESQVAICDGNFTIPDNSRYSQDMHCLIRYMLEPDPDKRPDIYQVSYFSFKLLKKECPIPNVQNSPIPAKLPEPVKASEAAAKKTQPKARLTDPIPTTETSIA
Sequence of GAK (amino acids Q25-N335) (O14976 25-335): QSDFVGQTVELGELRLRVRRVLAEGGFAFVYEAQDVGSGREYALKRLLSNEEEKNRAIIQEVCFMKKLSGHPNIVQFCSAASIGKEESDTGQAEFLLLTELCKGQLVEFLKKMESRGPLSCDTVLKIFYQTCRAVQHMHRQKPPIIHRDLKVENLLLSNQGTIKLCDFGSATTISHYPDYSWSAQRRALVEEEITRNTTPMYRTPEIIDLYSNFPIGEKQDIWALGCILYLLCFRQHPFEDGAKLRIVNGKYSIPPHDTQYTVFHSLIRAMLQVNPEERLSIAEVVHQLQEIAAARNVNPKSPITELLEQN
Sequence of BIKE (amino acids S38-E345) (K320A, K321A) (Q9NSY1 38-345 K320A/K321A): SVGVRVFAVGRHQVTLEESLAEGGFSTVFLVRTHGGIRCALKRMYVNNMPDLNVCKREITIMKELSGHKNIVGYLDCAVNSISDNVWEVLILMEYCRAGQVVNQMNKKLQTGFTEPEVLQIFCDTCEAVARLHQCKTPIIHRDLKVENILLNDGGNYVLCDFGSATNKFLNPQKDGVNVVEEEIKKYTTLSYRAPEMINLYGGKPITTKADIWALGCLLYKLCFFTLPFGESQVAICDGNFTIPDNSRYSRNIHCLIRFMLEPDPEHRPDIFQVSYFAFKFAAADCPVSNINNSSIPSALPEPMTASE
Sequence of AAK1 (Q2M2I8 whole entry): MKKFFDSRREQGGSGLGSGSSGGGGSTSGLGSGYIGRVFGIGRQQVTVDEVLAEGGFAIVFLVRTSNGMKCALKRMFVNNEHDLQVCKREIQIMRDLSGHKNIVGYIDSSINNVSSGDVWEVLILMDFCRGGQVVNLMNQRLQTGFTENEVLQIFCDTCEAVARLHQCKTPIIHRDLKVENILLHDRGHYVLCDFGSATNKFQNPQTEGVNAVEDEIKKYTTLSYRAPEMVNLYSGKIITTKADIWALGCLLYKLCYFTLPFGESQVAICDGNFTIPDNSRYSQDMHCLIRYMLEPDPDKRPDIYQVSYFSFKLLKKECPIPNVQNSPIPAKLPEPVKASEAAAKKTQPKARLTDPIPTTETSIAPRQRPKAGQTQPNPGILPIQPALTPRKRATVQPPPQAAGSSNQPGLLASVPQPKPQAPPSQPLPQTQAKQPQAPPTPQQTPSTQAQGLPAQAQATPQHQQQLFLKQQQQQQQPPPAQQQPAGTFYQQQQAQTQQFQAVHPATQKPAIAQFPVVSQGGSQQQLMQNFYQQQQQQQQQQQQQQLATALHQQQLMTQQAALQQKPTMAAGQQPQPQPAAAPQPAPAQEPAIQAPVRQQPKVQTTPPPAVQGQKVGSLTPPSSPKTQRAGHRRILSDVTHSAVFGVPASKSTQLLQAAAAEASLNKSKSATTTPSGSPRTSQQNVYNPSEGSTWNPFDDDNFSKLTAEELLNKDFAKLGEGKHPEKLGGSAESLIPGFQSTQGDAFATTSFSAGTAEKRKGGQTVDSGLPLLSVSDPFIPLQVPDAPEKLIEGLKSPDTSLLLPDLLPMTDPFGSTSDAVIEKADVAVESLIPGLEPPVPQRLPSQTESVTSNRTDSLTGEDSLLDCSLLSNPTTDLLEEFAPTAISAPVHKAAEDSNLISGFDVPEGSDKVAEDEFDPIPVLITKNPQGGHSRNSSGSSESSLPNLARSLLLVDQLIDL

On to `O=C1C[C@H](OC(=O)N2CCN(c3ccn4ncc(-c5cccnc5OC5CNC5)c4n3)CC2)CN1` [Compound I-43, [(3S)-5-Oxopyrrolidin-3-yl]4-[3-[2-(azetidin-3-yloxy)-3-pyridyl]pyrazolo[1,5-a]pyrimidin-5-yl]piperazine-1-carboxylate], for which the IC50 in test [1], in test [2], in test [3] and in test [4] was above 1500 nM throughout. In test [3], the “AAK1:GAK pSENs Selectivity” value is given as “D (D: 0.16-1.00)”.
`C[C@]1(OC(=O)N2CCN(c3ccn4ncc(-c5cccnc5OC5CC5)c4n3)CC2)CCNC1` (single isomer, unassigned) [Compound I-13]: the IC50 fell in the range of 1 to 50 nM in test [1], 51 to 150 nM in test [2], 1 to 50 nM in test [3] and 1 to 50 nM in test [4]. Besides, in test [3], the “AAK1:GAK pSENs Selectivity” value is “B (B: 0.016-0.075)”.
As to `O=C1C[C@H](OC(=O)N[C@H]2CCN(c3ccn4ncc(-c5cccnc5OC5CC5)c4n3)C2)CN1` [Compound I-55, (S)-5-oxopyrrolidin-3-yl ((S)-1-(3-(2-cyclopropoxypyridin-3-yl)pyrazolo[1,5-a]pyrimidin-5-yl)pyrrolidin-3-yl)carbamate], the IC50 in test [2] and in test [4] was above 1500 nM in each case. In addition, the “AAK1:GAK pSENs Selectivity” value in test [3] is recorded as “D (D: 0.16-1.00)”.
Take `CN1CC(Oc2ncccc2-c2cnn3ccc(N4CCN(C(=O)O[C@@H]5CNC(=O)C5)CC4)nc23)C1` [Compound I-44, (S)-5-Oxopyrrolidin-3-yl 4-(3-(2-((1-methylazetidin-3-yl)oxy)pyridin-3-yl)pyrazolo[1,5-a]pyrimidin-5-yl)piperazine-1-carboxylate]: the IC50 in test [2] and in test [4] was above 1500 nM in each case. Moreover, the “AAK1:GAK pSENs Selectivity” value in test [3] is recorded as “D (D: 0.16-1.00)”.
Turning to `CC1(OC(=O)N2CCN(c3ccn4ncc(-c5cccnc5OCC5CCC5)c4n3)CC2)COC1` [Compound I-19, 3-Methyloxetan-3-yl 4-(3-(2-(cyclobutylmethoxy)pyridin-3-yl)pyrazolo[1,5-a]pyrimidin-5-yl)piperazine-1-carboxylate], the IC50 in test [2] and in test [4] was above 1500 nM each time. Also, the “AAK1:GAK pSENs Selectivity” value in test [3] is listed as “D (D: 0.16-1.00)”.
Take `N#C[C@@H]1CN(c2ccn3ncc(-c4cccnc4OC4CC4)c3n2)CCN1C(=O)O[C@@H]1CNC(=O)C1` [Compound I-41, (S)-5-Oxopyrrolidin-3-yl (S)-2-cyano-4-(3-(2-cyclopropoxypyridin-3-yl)pyrazolo[1,5-a]pyrimidin-5-yl)piperazine-1-carboxylate]: the IC50 in test [2] and in test [4] was above 1500 nM each time. For the same compound, the “AAK1:GAK pSENs Selectivity” value in test [3] was “B (B: 0.016-0.075)”.
With `CC(C)(C)OC(=O)N1CC(Nc2ncccc2-c2cnn3ccc(N4CCN(C(=O)O[C@@H]5CNC(=O)C5)CC4)nc23)C1` [Compound I-48], the IC50 in test [2] and in test [4] was above 1500 nM each time. Besides, the “AAK1:GAK pSENs Selectivity” value in test [3] is listed as “D (D: 0.16-1.00)”.
With `CN1C[C@@H](OC(=O)N2CCN(c3nc4c(-c5cccnc5OC5CCCCC5)cnn4cc3F)CC2)CC1=O` [Compound I-123, [(3S)-1-methyl-5-oxo-pyrrolidin-3-yl]-4-[3-[2-(cyclohexoxy)-3-pyridyl]-6-fluoro-pyrazolo[1,5-a]pyrimidin-5-yl]piperazine-1-carboxylate], the IC50 in test [2] and in test [4] was above 1500 nM in each case. The “AAK1:GAK pSENs Selectivity” value in test [3] is recorded as “C (C: 0.076-0.15)”.

These data come from patent publication US20250270222A1, “AP2 ASSOCIATED KINASE 1 INHIBITORS AND USES THEREOF” (Satellos Bioscience Inc., priority 2023, published 2025).
